Measured values from paper PMC8868346, “Novel Series of Dual NRF2 Inducers and Selective MAO-B Inhibitors for the Treatment of Parkinson’s Disease” (Antioxidants, 2022).
Read-outs that look alike come from different tables or passages of the source.

Tests used:
SH-SY5Y cells [1] = experiment: Neuroprotection in SH-SY5Y against rotenone/oligomycin A (MTT); type: cell-based, human; settings: compound 0.1 µM, 24 h pre- and 24 h co-incubation
Description: (§1) Cells were seeded at a density of 60,000 cells/well in 96-well transparent plates for 24 h. Then cells were pre-incubated with the corresponding compound at 0.1 μM. After 24 h, the medium was removed and replaced with 1% (v/v) FBS media containing the corresponding compound at 0.1 µM and the selected toxic stimuli, namely a mixture of rotenone and oligomycin A (R/O; 30/10 μM, respectively; Sigma–Aldrich, Spain) or 6-hydroxydopamine (100 µM; Sigma–Aldrich, Spain). […].

NRF2 = NRF2 induction, luciferase activity in AREc32 reporter cells; type: cell-based, human; settings: for EC50: Homo sapiens, 24 h, concentration required to double luciferase activity compared to basal, read-out: CD (µM) NRF2 Induction; for fold potentiation of NRF2 induction compared to the corresponding -OMe derivative: 11, 12 vs 10, 14, 15 vs 13
Description: Cells were used from the third to twelfth passage.
AREc32 cells were stably transfected with the plasmid pGL-8xARE that implements 8 copies of the antioxidant response element (ARE) sequences followed by luciferase reporter gen. Therefore, NRF2 induction can be related to the activation of ARE sequences by measuring luciferase activity in terms of luminescence production. For NRF2 induction experiments, cells were plated in 96 white flat bottom well plates (20,000 cells/well). After 24 h, cells were incubated with selected compounds at the desired concentrations in duplicates for 24 h. The Luciferase Assay System (Promega E1500) was used according to provider protocol and luminescence was quantified in an Orion II microplate luminometer (Berthold, Germany). Fold induction of luciferase activity was normalized to basal conditions. Data were expressed as CD values, which means the concentration needed to duplicate the luciferase activity compared to basal conditions. CD values were calculated from dose–response curves fitted by non-linear regression for each compound after logarithmic transformation of the data using GraphPad Prism 8.0 software.

[2] = tested on: Mixed primary glial cultures; experiment: Cytotoxicity in mixed primary glial cultures (MTT); settings: MTT reduction
Description: Mixed primary glial cultures were obtained from cerebral cortex of 2–5-day-old Sprague–Dawley rats. Blood vessels and meninges were first removed in Hank’s balanced salt solution (HBSS) and then forebrains were dissociated in DMEM/F12 medium. After mechanical dissociation, filtering, and centrifugation at 800 rpm for 10 min, cells were plated at a density of 30,000 cells/well in DMEM/F12 medium with 20% (v/v) FBS and 1% penicillin/streptomycin (10,000 units). […] After 5 days, medium was substituted by DMEM/F12 medium with 10% (v/v) FBS. Cells were cultured for 7–10 days before treatment.
(§2) Basal absorbance was set to 100% and results were normalized to basal conditions.
(§3) Cytotoxicity. LD50 values in several cell cultures employed
(§4) Table S2. Cytotoxicity elicited by 10-18 compounds in SH-SY5Y, AREc32 and mixed pr imary glial cultures. Viability was measured as MTT reduction in presence of increasing concentrations of der ivatives. LD50 values were calcula ted from dose-response curves. Data are expr essed as mean ± SEM of at least 3 independent experiments.
(§5) 1.3. PAMPA control compounds (BBB permeability)
(§6) Table S3. Pr ediction of the BBB passive permeability of control compounds

SH-SY5Y cells [3] = experiment: Neuroprotection in SH-SY5Y against 6-hydroxydopamine (MTT); type: cell-based, human; settings: 6-OHDA 100 µM; compound 0.1 µM, 24 h pre- and 24 h co-incubation
Description: as §1

IL-1β = IL-1β levels by ELISA in LPS stimulated primary mixed glial cultures; type: cell-based, rat; settings: compound 10 μM; LPS 1 µg/mL 18 h
Description: (§7) Cells were cultured for 7–10 days before treatment.
(§8) Primary glial cells were pre-treated with compounds at the desired concentration for 24 h. Then, treatments were removed and glial cells were incubated with lipopolysaccharide (LPS, 1 μg/mL; Sigma–Aldrich, Spain) in the presence of each compound at the desired concentration for 18 h. Nitrite production was then assessed by modified Griess assay. Briefly, 150 µL of each sample was mixed with 75 µL of 4,4′-diamino-diphenylsulfone (Dapsone) and 75 µL of N-(1-naphthyl)ethylenediamine (Neda). The mixture was incubated at room temperature for 5 min. […] Data were normalized to basal conditions, setting this value as 100% of nitrite production. EC50 values were calculated from dose–response curves obtained from representing percentage of nitrites reduction vs. compound concentration.
Supernatants obtained from mixed primary glial cell cultures were used to determine IL-1β levels by quantitative ELISA kits (Preprotech, R&D Systems-bioNova, Madrid, Spain) following the manufacturer’s instructions. Commercial solution of IL-1β was used to generate a standard curve for sample quantification. Absorbance was measured in a microplate reader SPECTROstar Nano (BMG Labtech) at 405 with 650 nm correction.

[4] = tested on: nitrite production in mixed primary glial cultures; experiment: Nitrite production in LPS stimulated primary mixed glial cultures (Griess); type: cell-based; settings: Rattus norvegicus; 24 h pre-treatment, LPS 1 µg/mL 18 h; read-out: EC50 Nitrite Reduction
Description: as §7, §8

AREc32 = settings: MTT reduction
Description: AREc32 cells, shared by CR Wolf, were grown in Dulbecco’s modified Eagle medium (DMEM) with GlutaMAX (Gibco, Invitrogen, Madrid, Spain), supplemented with 10% (v/v) filtrated fetal bovine serum (FBS; Gibco, Invitrogen, Madrid, Spain), 1% of antibiotics penicillin-streptomycin, and geneticin (0.8 mg/mL G418; Gibco, Invitrogen, Madrid, Spain). […] They were recovered by centrifugation at 800 rpm for 10 min. Cells were used from the third to twelfth passage.
as §2, §3, §4, §5, §6

hrMAO-A = target: T1, hrMAO-A (Homo sapiens, UniProt P21397); experiment: Inhibition of monoamine oxidase A (Amplex UltraRed, tyramine); type: biochemical
T1 construct: purchased Sigma–Aldrich
T1 sequence (P21397 1-527): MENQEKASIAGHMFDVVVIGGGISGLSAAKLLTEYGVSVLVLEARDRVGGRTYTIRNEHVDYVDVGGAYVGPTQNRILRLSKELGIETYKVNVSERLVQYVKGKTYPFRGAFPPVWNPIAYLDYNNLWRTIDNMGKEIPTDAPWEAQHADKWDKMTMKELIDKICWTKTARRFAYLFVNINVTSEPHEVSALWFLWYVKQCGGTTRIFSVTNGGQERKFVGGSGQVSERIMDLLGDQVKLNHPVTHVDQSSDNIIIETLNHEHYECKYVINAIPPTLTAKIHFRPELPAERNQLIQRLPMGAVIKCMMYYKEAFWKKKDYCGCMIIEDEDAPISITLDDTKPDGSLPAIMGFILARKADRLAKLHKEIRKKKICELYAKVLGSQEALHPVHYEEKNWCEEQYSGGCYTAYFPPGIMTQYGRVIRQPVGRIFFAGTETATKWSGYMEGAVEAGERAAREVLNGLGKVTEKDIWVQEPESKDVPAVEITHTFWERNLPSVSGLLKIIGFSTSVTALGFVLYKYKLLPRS

[5] = 30 min pre-incubation, 37 °C, read-out: IC50 MAO-A

| SMILES | R/O (30/10 µM) Protection (%) (SH-SY5Y cells [1]) | EC50 (NRF2; AREc32 cells) [µM] | LD50 (µM) Mixed primary glial cultures [2] [µM] | 6-OHDA Protection (%) (SH-SY5Y cells [3]) | IL-1β Levels % Reduction (10 μM) (IL-1β) [%] | EC50 [4] [µM] | LD50 (µM) AREc32 (AREc32) [µM] | IC50 (hrMAO-A) [µM] | fold potentiation of NRF2 induction compared to the corresponding -OMe derivative (NRF2) [fold] | luciferase activity (NRF2 induction) dose–response (NRF2; AREc32 cells, 24 h, 3, 5, and 10 µM) | IC50 (hrMAO-A; [5]) [µM] |
| --- | --- | --- | --- | --- | --- | --- | --- | --- | --- | --- | --- |
| C#CCNCCc1c[nH]c2ccc(OC)cc12 [Compound 10, N-(2-(5-Methoxy-1H-indol-3-yl)ethyl)prop-2-yn-1-amine] | 44.6 | 20.9 ± 2.2 | > 30 | 83.5 | 68.4 ± 4.9 | 16.2 ± 2.5 | > 30 | 0.826 ± 0.11 | – | – | – |
| C#CCN(CC#C)CCc1c[nH]c2ccc(OC)cc12 [Compound 13, N-(2-(5-Methoxy-1H-indol-3-yl)ethyl)-N-(prop-2-yn-1-yl)prop-2-yn-1-amine] | 42.7 | 13.9 ± 1.5 | > 30 | 87.4 | 67.4 ± 5.80 | 12.6 ± 0.53 | > 30 | > 100 | – | – | – |
| C#CCN(CC#C)CCc1c[nH]c2ccc(OC(=O)C=Cc3ccccc3)cc12 [Compound 14, 3-(2-(Di(prop-2-yn-1-yl)amino)ethyl)-1H-indol-5-yl Cinnamate] | 53.3 | 5.07 ± 0.23 | > 30 | 71.7 | 41.1 ± 1.7 | 19.4 ± 1.4 | > 30 | – | 3 | significantly increasing luciferase activity | 56.6 ± 6.3 |
| C#CCN(CC#C)CCc1c[nH]c2ccc(OC(=O)/C=C/c3ccc(C)cc3)cc12 [Compound 15, 3-(2-(Di(prop-2-yn-1-yl)amino)ethyl)-1H-indol-5-yl-(E)-3-(p-tolyl) Acrylate] | 36.4 | 5.76 ± 0.07 | > 30 | 41.5 | 60.5 ± 3.50 | 22.9 ± 3.3 | > 30 | – | 3 | – | > 100 |
